Experimental data published in publication PMC9103764, “Pilot Study on Acute Effects of Pharmacological Intraperitoneal L-Homoarginine on Homeostasis of Lysine and Other Amino Acids in a Rat Model of Isoprenaline-Induced Takotsubo Cardiomyopathy” (International Journal of Molecular Sciences, 2022).

Experiments:
[1] = system: L-Arginine:glycine amidinotransferase (AGAT); experiment: Equilibrium constants of the AGAT-catalyzed reactions calculated from free amino acid concentrations in rat organs; format: in vivo, Sprague-Dawley rats
[2] = parameters: method as in PMID 28710553; conditions: single i.p. hArg 20, 220, 440 mg/kg; cited from earlier work
[3] = parameters: method as in PMID 31776762; conditions: decarboxylation product of hArg; rat TTC model; cited from earlier work
[4] = R1, hArg 440 mg/kg i.p., sacrifice 32 min, ISO 50 mg/kg i.p. at 15 min
[5] = R2, hArg 20 mg/kg i.p., sacrifice 64 min, ISO 50 mg/kg i.p. at 15 min
[6] = R3, hArg 20 mg/kg i.p., sacrifice 28 min, ISO 50 mg/kg i.p. at 15 min
[7] = R4, hArg 440 mg/kg i.p., sacrifice 87 min, ISO 50 mg/kg i.p. at 15 min
[8] = R13, hArg 20 mg/kg i.p., sacrifice 126 min, ISO 50 mg/kg i.p. at 15 min
[9] = R14, hArg 220 mg/kg i.p., sacrifice 108 min, ISO 50 mg/kg i.p. at 15 min
[10] = R17, hArg 440 mg/kg i.p., sacrifice 14 min, no ISO
[11] = R18, hArg 20 mg/kg i.p., sacrifice 114 min, ISO 50 mg/kg i.p. at 15 min
[12] = R19, hArg 220 mg/kg i.p., sacrifice 98 min, ISO 50 mg/kg i.p. at 15 min

N=C(N)NCCCC[C@H](N)C(=O)O [hArg, L-homoarginine]
KhArg/KGAA ratio, kidney [1, 4]: 0.13
KhArg/KGAA ratio, lung [1, 4]: 6.8
equilibrium constant KGAA, kidney [1, 4]: 1.83
equilibrium constant KGAA, lung [1, 4]: 0.06
equilibrium constant KhArg, kidney [1, 4]: 0.24
equilibrium constant KhArg, lung [1, 4]: 0.40
KhArg/KGAA ratio, heart [1, 5]: 0.002
KhArg/KGAA ratio, kidney [1, 5]: 0.23
KhArg/KGAA ratio, liver [1, 5]: 0.19
KhArg/KGAA ratio, lung [1, 5]: 0.13
equilibrium constant KGAA, heart [1, 5]: 2.26
equilibrium constant KGAA, kidney [1, 5]: 0.31
equilibrium constant KGAA, liver [1, 5]: 0.09
equilibrium constant KGAA, lung [1, 5]: 0.023
equilibrium constant KhArg, heart [1, 5]: 0.005
equilibrium constant KhArg, kidney [1, 5]: 0.07
equilibrium constant KhArg, liver [1, 5]: 0.02
equilibrium constant KhArg, lung [1, 5]: 0.003
KhArg/KGAA ratio, heart [1, 6]: 0.001
KhArg/KGAA ratio, kidney [1, 6]: 0.16
KhArg/KGAA ratio, liver [1, 6]: 0.35
KhArg/KGAA ratio, lung [1, 6]: 0.06
equilibrium constant KGAA, heart [1, 6]: 1.39
equilibrium constant KGAA, kidney [1, 6]: 0.37
equilibrium constant KGAA, liver [1, 6]: 2.11
equilibrium constant KGAA, lung [1, 6]: 5.34
equilibrium constant KhArg, heart [1, 6]: 0.002
equilibrium constant KhArg, kidney [1, 6]: 0.06
equilibrium constant KhArg, liver [1, 6]: 0.74
equilibrium constant KhArg, lung [1, 6]: 0.31
KhArg/KGAA ratio, kidney [1, 7]: 2.18
KhArg/KGAA ratio, liver [1, 7]: 1.61
KhArg/KGAA ratio, lung [1, 7]: 2.61
equilibrium constant KGAA, kidney [1, 7]: 0.53
equilibrium constant KGAA, liver [1, 7]: 12.6
equilibrium constant KGAA, lung [1, 7]: 0.13
equilibrium constant KhArg, kidney [1, 7]: 1.16
equilibrium constant KhArg, liver [1, 7]: 20.3
equilibrium constant KhArg, lung [1, 7]: 0.34
KhArg/KGAA ratio, heart [1, 8]: 0.43
KhArg/KGAA ratio, kidney [1, 8]: 0.006
KhArg/KGAA ratio, liver [1, 8]: 0.31
KhArg/KGAA ratio, lung [1, 8]: 0.27
equilibrium constant KGAA, heart [1, 8]: 0.23
equilibrium constant KGAA, kidney [1, 8]: 1.14
equilibrium constant KGAA, liver [1, 8]: 2.45
equilibrium constant KGAA, lung [1, 8]: 0.07
equilibrium constant KhArg, heart [1, 8]: 0.10
equilibrium constant KhArg, kidney [1, 8]: 0.007
equilibrium constant KhArg, liver [1, 8]: 0.76
equilibrium constant KhArg, lung [1, 8]: 0.02
KhArg/KGAA ratio, heart [1, 9]: 1.9
KhArg/KGAA ratio, kidney [1, 9]: 0.05
KhArg/KGAA ratio, liver [1, 9]: 4.8
KhArg/KGAA ratio, lung [1, 9]: 1.13
equilibrium constant KGAA, heart [1, 9]: 0.20
equilibrium constant KGAA, kidney [1, 9]: 1.32
equilibrium constant KGAA, liver [1, 9]: 1.07
equilibrium constant KGAA, lung [1, 9]: 0.03
equilibrium constant KhArg, heart [1, 9]: 0.38
equilibrium constant KhArg, kidney [1, 9]: 0.06
equilibrium constant KhArg, liver [1, 9]: 5.16
equilibrium constant KhArg, lung [1, 9]: 0.03
KhArg/KGAA ratio, heart [1, 10]: 3.8
KhArg/KGAA ratio, kidney [1, 10]: 0.07
KhArg/KGAA ratio, liver [1, 10]: 6.7
KhArg/KGAA ratio, lung [1, 10]: 4.0
equilibrium constant KGAA, heart [1, 10]: 0.09
equilibrium constant KGAA, kidney [1, 10]: 1.64
equilibrium constant KGAA, liver [1, 10]: 0.80
equilibrium constant KGAA, lung [1, 10]: 0.04
equilibrium constant KhArg, heart [1, 10]: 0.33
equilibrium constant KhArg, kidney [1, 10]: 0.12
equilibrium constant KhArg, liver [1, 10]: 5.38
equilibrium constant KhArg, lung [1, 10]: 0.17
KhArg/KGAA ratio, heart [1, 11]: 0.36
KhArg/KGAA ratio, kidney [1, 11]: 0.005
KhArg/KGAA ratio, liver [1, 11]: 0.12
KhArg/KGAA ratio, lung [1, 11]: 0.12
equilibrium constant KGAA, heart [1, 11]: 0.31
equilibrium constant KGAA, kidney [1, 11]: 1.94
equilibrium constant KGAA, liver [1, 11]: 4.20
equilibrium constant KGAA, lung [1, 11]: 0.21
equilibrium constant KhArg, heart [1, 11]: 0.11
equilibrium constant KhArg, kidney [1, 11]: 0.009
equilibrium constant KhArg, liver [1, 11]: 0.50
equilibrium constant KhArg, lung [1, 11]: 0.03
KhArg/KGAA ratio, kidney [1, 12]: 1.8
KhArg/KGAA ratio, liver [1, 12]: 2.0
equilibrium constant KGAA, kidney [1, 12]: 0.35
equilibrium constant KGAA, liver [1, 12]: 2.59
equilibrium constant KhArg, kidney [1, 12]: 0.62
equilibrium constant KhArg, liver [1, 12]: 5.26
equilibrium constant KhArg, lung [1, 12]: 0.20
effect on citrullination (proteinic Cit) in organs (all organs, data not shown): independent of the hArg dose
incorporation of pharmacological hArg into tissue proteins (rat, in vivo): no incorporation of pharmacological hArg into tissue proteins
changes in nitrite and nitrate [2]: marginal
tissue homoagmatine (hAgm) concentration, median [interquartile range] [3]: 34.8 [4.6–270] nM
